The test system of series [1] is MPTP-lesioned macaques with established motor complications. Nature of the series: Monotherapy with DPI-289 in MPTP-lesioned macaques with established motor complications due to L-DOPA. Format: in vivo, Macaca fascicularis. As to the method:
This activity is measured by an infra-red movement detector and captures all movement, normal and abnormal. Data are mean±s.e.m. […] N=8 for all treatment groups. */**/*** represents P<0.05, P<0.01 or P<0.001 cf vehicle-treatment; 2-way RM ANOVA (FIG. 2A) or 1-way RM-ANOVA with Holm-Sidak's Multiple Comparison test (FIGS. 2B and C). […].
Parkinsonian disability is scored by a trained neurologist who is blinded to treatment allocation but is trained to differentiate normal from abnormal movements and is able to distinguish diminution of Parkinsonian disability from dyskinetic (abnormal) movements. Data are mean±s.e.m. […] N=8 for all treatment groups. */**/*** represents P<0.05, P<0.01 or P<0.001 cf. vehicle-treatment; 2-way RM ANOVA (FIG. 6A) or 1-way RM-ANOVA with Holm-Sidak's Multiple Comparison test (FIGS. 6 B and C).
Eight cynomolgus monkeys (Macaca fascicularis, 6.4-6.8 years of age, 2.8-4.2 kg were used in this study. Animals were housed two or three per cage in the same housing room. The housing rooms were subject to a 12 hour light-dark cycle (lights on 7 a.m.), temperature 20-25° C. in a room containing only animals of the same sex. Fresh fruit, primate pellets and water were available ad libitum other than at times of overnight fasting prior to PK or behavioral assessment days.
The animals were rendered parkinsonian via once-daily subcutaneous injection of MPTP (0.2 mg/kg), administered for between 9 and 12 days, until the appearance of parkinsonism symptoms. After this time, a parkinsonian syndrome reached a moderate to marked level, over approximately 30 days, and stabilized. […] L-DOPA naïve animals have received no L-DOPA and those showing established motor complication have received L-DOPA in an amount 25 mg/kg orally twice daily for at least 2 months. L-DOPA is given with the decarboxylase inhibitor benserazide (as Madopar™).

Series [2] has as its system MPTP-lesioned cynomolgus macaques. Nature of the series: Acute DPI-289 in combination with low-dose L-DOPA, versus high-dose L-DOPA, in MPTP-lesioned macaques with L-DOPA-induced dyskinesia. In kind it is in vivo, Macaca fascicularis. An excerpt:
This study utilized female MPTP-lesioned cynomolgus macaques that have received chronic repeat-treatment with L-DOPA and manifested stable and reproducible dyskinesia, of choreic and dystonic nature, in response to subsequent L-DOPA-treatments. Eight cynomolgus monkeys (Macaca fascicularis, 7.6-13.1 years of age, 3.0-4.5 kg) were used in this study. In a prior experiment, for each individual animal a low and high dose of L-DOPA was established such that the low dose (LD1) provided modest anti-parkinsonian action (1-2 h) and elicited predominantly non-disabling dyskinesia, the high dose (LDh) provided the best anti-parkinsonian effect achievable but also elicited disabling dyskinesia and an anti-parkinsonian benefit of 2-3 h duration
The behavioral effects of acute DPI-289 administered in combination with low-dose L-DOPA (LD1) were assessed. Also higher dose of L-DOPA was also assessed without the addition of DPI-289. The low dose (LD1) was about 10 to 11 mg/kg of L-DOPA which is considered to be sub-optimal in terms of anti-parkinsonian benefit. The dose of DPI-289 was 20 mg/kg and the high dose of L-DOPA was about 30 to 31 mg/kg and considered to an optimal does in terms of anti-parkinsonian benefit but with disabling dyskinesia. The DPI-289 was administered one (1) hour prior to the L-DOPA and start of observation. Activity counts were collected and parkinsonian disability and dyskinesia was assessed via post-hoc analysis of video-recordings by a movement disorder neurologist blinded to treatment.
On the day before behavioral observations, food was removed overnight, from 5 p.m. On days of behavioral assessment, treatment was administered to the animals in their home cage at approximately 9 a.m. A 6 h period of observation then commenced 1 h after oral dosing.
The animals were rendered parkinsonian by once daily subcutaneous injection of 0.2 mg/kg MPTP, administered for 8-12 days, until the first appearance of parkinsonism symptoms. After this time, a parkinsonian syndrome reached a moderate to marked level, over approximately 30 days, and stabilized. Additional administrations of MPTP were given to some animals to titrate to similar degrees of parkinsonism in individuals across the group. […] Sixty days after commencing MPTP administration, L-DOPA (25 mg/kg) was administered orally twice daily for at least two months. L-DOPA was given with the decarboxylase inhibitor benserazide (as Madopar™). This treatment leads to the development of motor fluctuations, including dyskinesia.

[3] abbreviates: DPI-289 20 mg/kg in combination with low-dose L-DOPA.

Structures are written as SMILES.

`CCN(CC)C(=O)c1ccc(C(c2cccc(O)c2)N2C[C@@H](C)N(Cc3cccc(F)c3)C[C@@H]2C)cc1` (stereo partly drawn) [DPI-289, 4-((alpha-R)-alpha-((2S,5R)-2,5-Dimethyl-4-(3-fluorobenzyl)-1-piperazinyl)-3-hydroxybenzyl)-N,N-diethylbenzamide]: the bradykinesia entry in series [1] (20 mg/kg) was “significant change only in the first hour”; in series [2] (DPI-289 20 mg/kg in combination with low-dose L-DOPA, three to six hours after dosing), “same level of bradykinesia as that of the high dose of L-DOPA”. For the same compound, the ON-time entry in series [1] (20 mg/kg oral) is on record as “only limited on-time”. Further, the parkinsonian disability entry is “significant reduction in parkinsonian disability” in series [1] (20 mg/kg, two to three hours after dosing); “even and consistent level of fairly mild parkinsonian disability” in series [2] (setting [3]). Moreover, in series [1] (1, 10 and 20 mg/kg, two to four hours after dosing), the postural impairment entry is “significant reduction in postural impairment”. Further, the range of movement result in series [1] (1, 10 or 20 mg/kg, three to four hours after dose) is given as “increase in the range of movement”. Further, the alertness entry in series [1] (10 or 20 mg/kg, two to four hours after dosing) was “significant reduction in deficits in alertness”; in series [2] (setting [3]), “improvement in alertness value that mirrored that of the high dose of L-DOPA”. For the same compound, the dyskinesia entry in series [1] (L-DOPA primed animals, 1, 10, 20 mg/kg) is “does not cause dyskinesia”; in series [2] (DPI-289 20 mg/kg in combination with low-dose L-DOPA, cf. low-dose L-DOPA alone), “no additional dyskinesia”. Also, the “duration of effect on parkinsonian disability” value was “about 4 hours” in series [1] (single dose of 20 mg/kg) and “at least 6 hours” in series [2] (DPI-289 20 mg/kg in combination with sub-therapeutic L-DOPA). Moreover, the “movement activity / motor impairment” value in series [1] (single oral dose of 10 or 20 mg/kg) was “significantly alleviated motor impairment for 1 to 4 hours”. For the same compound, in series [2] (setting [3]), the “Good ON-time” value was “comparable ‘good’ time as that of the high dose of L-DOPA”. Moreover, in series [2] (setting [3]), the postural instability result is “reduced postural instability from about 2 to 6 hours after the dosing”. Also, the “range of movement impairment” value in series [2] (setting [3]) was “reduced range of movement impairment than low dose L-DOPA alone but this difference did not reach statistical significance”. Moreover, the motor activity entry in series [2] (DPI-289 20 mg/kg in combination with low-dose L-DOPA (about 10 to 11 mg/kg), cf. high dose L-DOPA) was “extended activity into four and five hours”. In addition, the “BAD ON-time (ON-time with disabling dyskinesia)” value in series [2] (DPI-289 20 mg/kg in combination with low-dose L-DOPA, relative to high dose L-DOPA) is “considerably less of ‘bad’ time”.

Values taken from patent US10973815B2, “Delta opioid agonist mu opioid antagonist compositions and methods for treating Parkinsons disease” (priority 2016, dated 2021).
